From the supplement of paper PMC5844555

Tests used:
Assay in all cases: 3' UTR reporter interaction score (median-centred robust z-score of log2 firefly/Renilla activity); higher = less repression of the 3' UTR reporter
Conditions in all cases: HEK293T; 48 h
MYC = system: MYC
Procedure, shortened: (§1)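 HEK293T cells were seeded at 10,000 per well in 96-well plates and co-transfected with DharmaFECT Duo, using 100 ng of a firefly luc2P reporter carrying the gene's 3' UTR, 20 ng of Renilla pRL-TK control and 2.5 pmol of miRNA mimic. Both luciferase activities were measured 48 h after transfection. The interaction score is the log-transformed firefly/Renilla ratio, converted to a per-plate robust z-score from the median and median absolute deviation and then median-centred per miRNA, with more negative values indicating interaction. Scores were averaged across at least two independent screens.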

TP53 = system: TP53
Procedure, shortened: as §1

FBXW7 = system: FBXW7
Procedure, shortened: as §1

MYCN = system: MYCN
Procedure, shortened: as §1

NOTCH1 = system: NOTCH1
Procedure, shortened: as §1

RB1 = system: RB1
Procedure, shortened: as §1

MYB = system: MYB
Procedure, shortened: as §1

ZEB2 = system: ZEB2
Procedure, shortened: as §1

PHF6 = system: PHF6
Procedure, shortened: as §1

MYT1L = system: MYT1L
Procedure, shortened: as §1

PHOX2B = system: PHOX2B
Procedure, shortened: as §1

BRCA2 = system: BRCA2
Procedure, shortened: as §1

EZH2 = system: EZH2
Procedure, shortened: as §1

HRAS = system: HRAS
Procedure, shortened: as §1

Row | Sequence | 3' UTR reporter interaction score (MYC) | 3' UTR reporter interaction score (TP53) | 3' UTR reporter interaction score (FBXW7) | 3' UTR reporter interaction score (MYCN) | 3' UTR reporter interaction score (NOTCH1) | 3' UTR reporter interaction score (RB1) | 3' UTR reporter interaction score (MYB) | 3' UTR reporter interaction score (ZEB2) | 3' UTR reporter interaction score (PHF6) | 3' UTR reporter interaction score (MYT1L) | 3' UTR reporter interaction score (PHOX2B) | 3' UTR reporter interaction score (BRCA2) | 3' UTR reporter interaction score (EZH2) | 3' UTR reporter interaction score (HRAS)
1 | AAUUGCACUUUAGCAAUGGUGA | 0.3 | -1.5 | -4.25 | 0.969 | -0.161 | 1.39 | -0.332 | -2.8 | 2.86 | 0.317 | 0.339 | 1.07 | -0.64 | -0.0471
2 | ACAAAGUGCUUCCCUUUAGAGU | -0.239 | -0.415 | 0.628 | -0.183 | 0.795 | -0.344 | 0.129 | 0.377 | -0.537 | -0.45 | 1.29 | -0.366 | -0.0342 | 0.332
3 | ACAAAGUGCUUCCCUUUAGAGUGU | -0.0807 | -0.281 | -0.043 | -0.406 | 0.486 | 0.896 | 0.347 | -0.058 | -0.618 | -0.448 | 1.18 | -0.733 | -0.507 | 0.36
4 | ACAGCAGGCACAGACAGGCAG | -0.0632 | -0.292 | -0.152 | -0.201 | 0.191 | 0.215 | -0.134 | 1.63 | 1.37 | -1.17 | 0.072 | -0.408 | -1.08 | -0.306
5 | ACAGUCUGCUGAGGUUGGAGC | -0.486 | -0.638 | -0.12 | 0.116 | 0.0668 | -1.36 | -0.0786 | 1.65 | 0.259 | -0.4 | 0.189 | 0.137 | 0.0759 | -0.732
6 | ACAUAGAGGAAAUUCCACGUUU | -0.782 | 1.11 | -1.56 | 0.704 | 0.306 | 0.821 | -0.866 | -1.25 | 1.27 | -0.235 | -1.91 | 1.12 | 0.213 | -0.449
7 | ACCAUCGACCGUUGAUUGUACC | -0.128 | 0.659 | -0.0205 | 0.598 | -0.491 | -0.388 | 0.0907 | 0.294 | 1.81 | -2.64 | 0.0128 | 0.723 | 0.789 | -0.526
8 | ACCCUAUCAAUAUUGUCUCUGC | 0.123 | -0.169 | 0.326 | 0.109 | -0.0515 | -0.979 | 0.329 | 0.936 | 0.779 | -0.388 | -0.0439 | -0.211 | -0.658 | -0.283
9 | ACUAGACUGAAGCUCCUUGAGG | 0.201 | 0.442 | -1.12 | 0.903 | -0.733 | 1.2 | 0.78 | -0.765 | -0.216 | 0.327 | -2.05 | 0.363 | 0.526 | 0.196
10 | ACUCAAAACCCUUCAGUGACUU | -0.294 | 1.13 | 0.994 | -0.913 | 0.701 | -0.026 | -1.17 | 0.456 | 1.5 | -0.111 | -0.184 | 0.794 | 0.495 | -0.68
11 | ACUCAAAAUGGGGGCGCUUUCC | 0.445 | -0.765 | -0.231 | -0.623 | -0.52 | 0.824 | -0.497 | 0.347 | 2.12 | 0.0549 | 0.0383 | -0.27 | 0.137 | 0.68
12 | ACUCCAGCCCCACAGCCUCAGC | -0.755 | -0.602 | -1.03 | 0.185 | -0.369 | 0.647 | 0.784 | -0.519 | -1.69 | -0.581 | 1.37 | -0.443 | -0.117 | 0.232
13 | ACUCCAUUUGUUUUGAUGAUGGA | -0.0596 | 0.239 | -0.453 | 0.165 | -0.518 | -0.0878 | -0.2 | 0.912 | 0.594 | -0.15 | 0.953 | -0.329 | -0.0207 | -0.269
14 | ACUGCAGUGAAGGCACUUGU | 0.291 | -0.642 | -0.112 | 0.762 | 0.45 | -0.0483 | 0.157 | -0.791 | -0.789 | -0.459 | -0.6 | 0.0527 | -0.638 | 0.389
15 | ACUGCCCUAAGUGCUCCUUCU | 0.276 | 0.48 | 0.408 | 1.21 | -0.46 | -0.147 | -0.35 | -0.687 | -0.374 | 0.161 | 0.63 | -0.325 | 0.0537 | -0.229
16 | ACUGGGGGCUUUCGGGCUCUGCGU | -0.444 | 0.587 | 0.537 | -0.18 | 0.864 | 0.988 | 0.119 | 1.01 | 2.06 | 0.0192 | -0.685 | 0.135 | -0.722 | -0.439
17 | ACUUACAGACAAGAGCCUUGCUC | 0.117 | 0.219 | 1.72 | -0.0923 | 0.216 | -0.353 | -2.25 | -0.165 | -1.11 | -1.75 | 1.47 | 0.948 | -1.69 | 1.57
18 | ACUUCACCUGGUCCACUAGCCGU | -0.039 | -0.237 | -2.1 | 0.0552 | 0.897 | 1.16 | 0.743 | 0.694 | 0.576 | 1.42 | -0.0718 | -0.412 | -0.456 | -0.736
19 | ACUUGGGCACUGAAACAAUGUCC | 0.112 | -1.34 | -0.0493 | 0.382 | -4.15 | 0.0718 | -0.103 | 1.78 | 1.39 | 0.0827 | 0.564 | -0.973 | -1.19 | -0.00106
